Target: T1, Cj0511His (Campylobacter jejuni, UniProt Q0PB04)
T1 sequence (Q0PB04 36-444): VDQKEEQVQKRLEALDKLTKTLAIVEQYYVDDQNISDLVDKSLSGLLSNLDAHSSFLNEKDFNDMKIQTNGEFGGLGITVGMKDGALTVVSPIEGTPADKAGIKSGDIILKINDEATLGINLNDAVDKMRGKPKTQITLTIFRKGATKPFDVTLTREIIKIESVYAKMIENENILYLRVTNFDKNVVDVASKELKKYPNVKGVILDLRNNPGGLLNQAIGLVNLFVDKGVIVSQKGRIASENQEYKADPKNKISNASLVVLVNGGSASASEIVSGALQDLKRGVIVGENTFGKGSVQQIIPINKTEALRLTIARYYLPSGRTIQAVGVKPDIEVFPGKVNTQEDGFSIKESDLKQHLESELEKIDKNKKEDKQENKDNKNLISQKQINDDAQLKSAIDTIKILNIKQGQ
Experiment: colorimetric protease screening kit, absorbance at […] nm
Type: biochemical
Details: 1 mM inhibitor, 37 °C, 3 h, 0.25 μg protein in 50 μl

NCCc1ccc(S(=O)(=O)F)cc1 [AEBSF]
reduction in activity at 1 mM: reduction in activity in the presence of antipain, aprotin, AEBSF and PMSF inhibitors
